# According to article PMC2843925 (ACS chemical neuroscience, 2010):
# Assays:
# [1] = target: T1, hNET (Homo sapiens, UniProt P23975); format: binding
# [2] = target: T2, hDAT (Homo sapiens, UniProt Q01959); experiment: [3H]-WIN 35,428 binding displacement in hDAT N2A cells; details: 10 μM, pre- or co-incubation
# [3] = target: T3, hSERT (Homo sapiens, UniProt P31645); experiment: [125I]-RTI-55 binding, HEK-hSERT membranes; details: for Hill coefficient: [125I]-RTI-55 binding
# [4] = target: T2, hDAT; experiment: [3H]-dopamine uptake inhibition, HEK-hDAT cells; format: cell-based; details: switch to HEK cells
# [5] = target: T2, hDAT; experiment: [125I]-RTI-55 binding, HEK-hDAT membranes; details: for Hill coefficient: [125I]-RTI-55 binding
# [6] = target: T1, hNET; format: cell-based
# [7] = ref [17]; cited from earlier work
# [8] = target: T3, hSERT; experiment: [3H]-serotonin uptake inhibition, HEK-hSERT cells; format: cell-based; details: read-out: [3H]-Serotonin uptake IC50, mean ± SEM
# [9] = target: T2, hDAT; experiment: [3H]-dopamine uptake inhibition in hDAT N2A cells
# [10] = target: DAT; details: known DAT ligands; ref Ukairo et al. ([12]); cited from earlier work
# T1 sequence (P23975 whole entry): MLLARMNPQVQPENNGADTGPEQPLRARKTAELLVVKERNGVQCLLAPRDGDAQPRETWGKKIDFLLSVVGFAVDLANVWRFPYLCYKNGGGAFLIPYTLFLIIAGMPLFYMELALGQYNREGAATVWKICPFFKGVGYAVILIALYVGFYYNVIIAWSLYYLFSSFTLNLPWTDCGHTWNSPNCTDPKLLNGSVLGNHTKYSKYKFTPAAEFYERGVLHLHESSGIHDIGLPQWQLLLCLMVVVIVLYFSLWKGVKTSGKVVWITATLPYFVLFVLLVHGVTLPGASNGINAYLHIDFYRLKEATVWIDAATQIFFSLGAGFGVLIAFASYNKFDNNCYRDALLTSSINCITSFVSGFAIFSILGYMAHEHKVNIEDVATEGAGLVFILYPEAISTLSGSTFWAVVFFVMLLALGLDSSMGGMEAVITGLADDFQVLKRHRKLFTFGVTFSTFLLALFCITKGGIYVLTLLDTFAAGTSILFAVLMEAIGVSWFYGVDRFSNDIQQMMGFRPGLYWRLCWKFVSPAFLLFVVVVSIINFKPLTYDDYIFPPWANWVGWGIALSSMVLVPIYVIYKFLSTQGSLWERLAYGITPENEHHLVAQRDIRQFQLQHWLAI
# T3 sequence (P31645 whole entry): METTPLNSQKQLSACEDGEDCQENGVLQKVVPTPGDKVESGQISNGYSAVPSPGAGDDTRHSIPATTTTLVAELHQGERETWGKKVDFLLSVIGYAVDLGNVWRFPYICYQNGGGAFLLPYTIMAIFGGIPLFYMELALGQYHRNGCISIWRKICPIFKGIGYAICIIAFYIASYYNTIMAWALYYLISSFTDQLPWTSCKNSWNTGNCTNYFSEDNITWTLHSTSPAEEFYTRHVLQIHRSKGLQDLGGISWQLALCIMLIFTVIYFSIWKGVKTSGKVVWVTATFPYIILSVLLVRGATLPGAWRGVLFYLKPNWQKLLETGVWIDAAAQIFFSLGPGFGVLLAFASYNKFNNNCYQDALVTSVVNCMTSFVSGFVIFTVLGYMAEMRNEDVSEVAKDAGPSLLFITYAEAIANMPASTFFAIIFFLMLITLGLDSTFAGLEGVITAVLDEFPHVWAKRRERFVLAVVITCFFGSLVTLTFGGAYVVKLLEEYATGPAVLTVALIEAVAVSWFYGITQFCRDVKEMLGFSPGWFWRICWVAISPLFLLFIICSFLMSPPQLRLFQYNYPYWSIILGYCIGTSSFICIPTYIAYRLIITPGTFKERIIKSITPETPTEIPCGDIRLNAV
# T2 sequence (Q01959 whole entry): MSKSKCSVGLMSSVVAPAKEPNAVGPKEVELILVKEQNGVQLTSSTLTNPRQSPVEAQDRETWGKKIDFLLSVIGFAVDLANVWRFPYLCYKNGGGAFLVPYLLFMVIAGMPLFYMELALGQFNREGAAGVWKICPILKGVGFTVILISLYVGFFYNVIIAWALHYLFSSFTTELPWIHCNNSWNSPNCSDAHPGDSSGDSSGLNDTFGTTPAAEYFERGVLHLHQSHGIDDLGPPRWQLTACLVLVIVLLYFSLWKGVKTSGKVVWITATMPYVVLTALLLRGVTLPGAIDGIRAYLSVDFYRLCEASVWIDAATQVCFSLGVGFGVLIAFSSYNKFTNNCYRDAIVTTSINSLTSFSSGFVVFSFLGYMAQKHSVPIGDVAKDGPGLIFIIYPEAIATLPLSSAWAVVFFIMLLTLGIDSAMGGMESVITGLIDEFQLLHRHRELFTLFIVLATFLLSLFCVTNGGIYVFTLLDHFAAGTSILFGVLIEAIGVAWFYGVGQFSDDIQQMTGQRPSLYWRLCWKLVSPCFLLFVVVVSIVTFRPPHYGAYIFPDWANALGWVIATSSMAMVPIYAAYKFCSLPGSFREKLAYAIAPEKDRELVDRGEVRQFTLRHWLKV
compound,measurement,setting,value
"C[C@@H](CN1CCC(Cc2ccccc2)CC1)[C@@H](O)c1ccc(O)cc1.Cl (relative stereo) [MI-4, [R-(R*, S*)]-α-(4-Hydroxyphenyl)-β-methyl-4-(phenylmethyl)-1-piperidinepropanol hydrochloride]",Affinity at hNET higher than at hDAT,[1]; HEK cells,10 fold
same,Hill coefficient,"[1]; HEK-hNET cells, [125I]-RTI-55 binding",-1.04 ± 0.07
same,Ki,"[1]; read-out: [125I]-RTI-55 binding Ki, HEK-hNET cells, mean ± SEM",0.365 ± 0.068 µM
same,"Block of [3H]-WIN 35,428 binding in initial screen",[2],"able to block [^3H]-WIN 35,428 binding in a statistically significant fashion"
same,Affinity at hSERT higher than at hDAT,[3]; HEK cells,5 fold
same,Hill coefficient,[3]; HEK-hSERT cells,-1.09 ± 0.04
same,Ki,"[3]; read-out: [125I]-RTI-55 binding Ki, HEK-hSERT cells, mean ± SEM",0.67 ± 0.1 µM
same,"DUIP increase, HEK vs N2A cells",[4],4 fold
same,DAT affinity lower than that of cocaine,[5]; HEK-hDAT cells,20 fold
same,Hill coefficient,[5]; HEK-hDAT cells,-0.80 ± 0.10
same,Ki,"[5]; read-out: [125I]-RTI-55 binding Ki, HEK-hDAT cells, mean ± SEM",3.46 ± 0.26 µM
same,"DAT affinity increase, HEK vs N2A cells",[5]; switch to HEK cells,~2 fold
same,Substrate uptake inhibition potency at hNET greater than at hDAT,[6]; HEK cells,3 – 4 fold
same,IC50,"[6]; read-out: [3H]-NE uptake IC50, HEK-hNET cells, mean ± SEM",2.09 ± 0.28 µM
same,Crosses the blood-brain barrier,[7],crosses the blood-brain barrier
same,IC50,[8],0.79 ± 0.17 µM
same,[3H]-dopamine uptake inhibition in screening assay,[9]; 10 μM,did not appreciably inhibit dopamine uptake
same,Shift of cocaine DUIP IC50 by MI-4,[9]; 10 μM MI-4,approximately 3 fold
same,IC50,[9]; read-out: Dopamine uptake inhibition potency (DUIP),28 µM
"COC(=O)[C@@H]1CN(C)CC[C@@H]1c1ccc(Cl)cc1 [4-ARA-127, (1S, 3S, 4R)-4-(chlorophenyl)-3-[hydroxy(methyloxo)methyl]-1-methylpiperidin-1iium]",E pKi (experimental pKi),[10],5.48
"COC(=O)[C@H]1[C@@H](OC(=O)c2ccccc2)C[C@@H]2CC[C@H]1O2 [8-Oxa-norcocaine, methyl (1R,2R,3S,5S)-3-benzoyloxy-8-oxabicyclo[3.2.1]octane-2-carboxylate]",E pKi (experimental pKi),[10],5.81
"COC(=O)[C@H]1[C@@H](OC(=O)c2ccccc2)C[C@@H]2CC[C@H]1N2C [Cocaine, methyl (1R,2R,3S,5S)-3-benzoyloxy-8-methyl-8-azabicyclo[3.2.1]octane-2-carboxylate, reference compound]",Hill coefficient,[3]; HEK-hSERT cells,-1.12 ± 0.03
same,Hill coefficient,[5]; HEK-hDAT cells,-0.81 ± 0.03
"OC1(c2ccc(Cl)cc2)c2ccccc2C2=NCCN21 (stereo not shown) [Mazindol, 5-(4-chlorophenyl)-2,3-dihydroimidazo[2,1-a]isoindol-5-ol]",E pKi (experimental pKi),[10],7.89
"COC(=O)[C@H]1[C@@H](c2ccc(F)cc2)C[C@@H]2CC[C@H]1N2C [WIN 35,428, methyl (1R,2S,3S,5S)-3-(4-fluorophenyl)-8-methyl-8-azabicyclo[3.2.1]octane-2-carboxylate]",E pKi (experimental pKi),[10],7.70
